Measurements taken from the supplement of paper PMC10307832.

Assays:
Assay in all cases: relative viability (nuclei count vs DMSO), 5 days (fraction); higher = more cells survive
AZD8055 + Bortezomib = compound: COc1ccc(-c2ccc3c(N4CCOC[C@@H]4C)nc(N4CCOC[C@@H]4C)nc3n2)cc1CO [AZD8055] + CC(C)C[C@H](NC(=O)[C@H](Cc1ccccc1)NC(=O)c1cnccn1)B(O)O [Bortezomib] (partner 0.002 µM)
Summary of the method: (§1)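 Relative viability was taken as the ratio of nuclei in treated wells to nuclei in vehicle wells. Lung cancer cell lines in 1536-well plates received compounds by pin tool one day after seeding, either one drug alone or a fixed anchor-drug dose plus five library-drug doses (not always all listed) in √10 steps. Nuclei were counted on 4× images after 5 days of treatment, and values are medians of duplicate plates.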

AZD8055 + Palbociclib = compound: COc1ccc(-c2ccc3c(N4CCOC[C@@H]4C)nc(N4CCOC[C@@H]4C)nc3n2)cc1CO [AZD8055] + CC(=O)c1c(C)c2cnc(Nc3ccc(N4CCNCC4)cn3)nc2n(C2CCCC2)c1=O [Palbociclib] (partner 0.5 µM)
Summary of the method: as §1

AZD8055 + Pictilisib = compound: COc1ccc(-c2ccc3c(N4CCOC[C@@H]4C)nc(N4CCOC[C@@H]4C)nc3n2)cc1CO [AZD8055] + CS(=O)(=O)N1CCN(Cc2cc3nc(-c4cccc5[nH]ncc45)nc(N4CCOCC4)c3s2)CC1 [Pictilisib] (partner 1 µM)
Summary of the method: as §1

AZD8055 + Foretinib = compound: COc1ccc(-c2ccc3c(N4CCOC[C@@H]4C)nc(N4CCOC[C@@H]4C)nc3n2)cc1CO [AZD8055] + COc1cc2c(Oc3ccc(NC(=O)C4(C(=O)Nc5ccc(F)cc5)CC4)cc3F)ccnc2cc1OCCCN1CCOCC1 [Foretinib] (partner 0.25 µM)
Summary of the method: as §1

| Cell Line | relative viability (AZD8055 + Bortezomib; first compound 0.01 µM) | relative viability (AZD8055 + Bortezomib; first compound 0.03162 µM) | relative viability (AZD8055 + Bortezomib; first compound 0.1 µM) | relative viability (AZD8055 + Bortezomib; first compound 0.3162 µM) | relative viability (AZD8055 + Bortezomib; first compound 1 µM) | relative viability (AZD8055 + Palbociclib; first compound 0.01 µM) | relative viability (AZD8055 + Palbociclib; first compound 0.03162 µM) | relative viability (AZD8055 + Palbociclib; first compound 0.1 µM) | relative viability (AZD8055 + Palbociclib; first compound 0.3162 µM) | relative viability (AZD8055 + Palbociclib; first compound 1 µM) | relative viability (AZD8055 + Pictilisib; first compound 0.01 µM) | relative viability (AZD8055 + Pictilisib; first compound 0.03162 µM) | relative viability (AZD8055 + Pictilisib; first compound 0.1 µM) | relative viability (AZD8055 + Pictilisib; first compound 0.3162 µM) | relative viability (AZD8055 + Pictilisib; first compound 1 µM) | relative viability (AZD8055 + Foretinib; first compound 0.01 µM) | relative viability (AZD8055 + Foretinib; first compound 0.03162 µM) | relative viability (AZD8055 + Foretinib; first compound 0.1 µM) | relative viability (AZD8055 + Foretinib; first compound 0.3162 µM) | relative viability (AZD8055 + Foretinib; first compound 1 µM) |
| --- | --- | --- | --- | --- | --- | --- | --- | --- | --- | --- | --- | --- | --- | --- | --- | --- | --- | --- | --- | --- |
| 201T | 1.12 | 1.1 | 1.11 | 0.881 | 0.811 | 0.354 | 0.314 | 0.278 | 0.251 | 0.303 | 0.623 | 0.606 | 0.521 | 0.495 | 0.472 | 1.34 | 1.08 | 0.892 | 0.391 | 0.328 |
| A-427 | 1.01 | 0.815 | 0.858 | 0.518 | 0.462 | 0.516 | 0.553 | 0.467 | 0.392 | 0.409 | 0.747 | 0.684 | 0.677 | 0.501 | 0.507 | 0.954 | 0.983 | 0.856 | 0.491 | 0.416 |
| ABC-1 | 0.3 | 0.287 | 0.366 | 0.284 | 0.329 | 0.915 | 0.54 | 0.483 | 0.503 | 0.47 | 0.78 | 0.659 | 0.556 | 0.438 | 0.334 | 1.2 | 0.909 | 0.997 | 0.701 | 0.324 |
| BEN | 0.663 | 0.472 | 0.428 | 0.365 | 0.262 | 0.485 | 0.472 | 0.436 | 0.475 | 0.413 | 0.541 | 0.391 | 0.34 | 0.316 | 0.254 | 0.533 | 0.463 | 0.389 | 0.284 | 0.284 |
| CAL-12T | 1.21 | 0.955 | 0.521 | 0.298 | 0.316 | 0.353 | 0.399 | 0.171 | 0.163 | 0.191 | 0.393 | 0.341 | 0.349 | 0.322 | 0.213 | 1.25 | 1.22 | 1.01 | 0.414 | 0.279 |
| COR-L23 | 1.2 | 0.834 | 0.779 | 0.236 | 0.168 | 0.319 | 0.226 | 0.199 | 0.126 | 0.124 | 0.95 | 0.478 | 0.35 | 0.16 | 0.17 | 1.24 | 0.893 | 0.822 | 0.353 | 0.233 |
| COR-L 105 | 0.997 | 0.879 | 0.565 | 0.309 | 0.373 | 0.426 | 0.388 | 0.374 | 0.403 | 0.381 | 0.488 | 0.31 | 0.388 | 0.326 | 0.35 | 1.55 | 1.03 | 1.31 | 0.756 | 0.476 |
| Calu-6 | 1.04 | 0.917 | 0.824 | 0.489 | 0.457 |  |  |  |  |  | 0.826 | 0.737 | 0.531 | 0.4 | 0.366 | 0.878 | 0.839 | 0.691 | 0.439 | 0.346 |
| ChaGo-K-1 | 1.03 | 1.12 | 1.09 | 0.87 | 0.647 | 1.01 | 0.87 | 0.864 | 0.728 | 0.652 | 0.817 | 0.848 | 0.801 | 0.49 | 0.346 | 1.07 | 0.862 | 0.81 | 0.61 | 0.621 |
| EKVX | 0.942 | 1 | 0.832 | 0.499 | 0.356 | 0.466 | 0.365 | 0.278 | 0.211 | 0.173 | 0.485 | 0.44 | 0.3 | 0.245 | 0.169 | 0.872 | 1.25 | 0.731 | 0.702 | 0.367 |
| EMC-BAC-2 | 1.06 | 1.04 | 0.954 | 0.465 | 0.382 | 0.477 | 0.437 | 0.376 | 0.31 | 0.29 | 0.511 | 0.494 | 0.475 | 0.279 | 0.286 | 0.965 | 0.846 | 0.809 | 0.393 | 0.347 |
| EPLC-272H | 0.74 | 0.62 | 0.754 | 0.522 | 0.691 | 0.319 | 0.303 | 0.309 | 0.27 | 0.219 | 0.339 | 0.307 | 0.23 | 0.261 | 0.212 | 0.537 | 0.418 | 0.378 | 0.274 | 0.21 |
| H3255 | 0.777 | 0.901 | 0.525 | 0.371 | 0.259 | 0.3 | 0.303 | 0.314 | 0.288 | 0.292 | 0.518 | 0.45 | 0.249 | 0.277 | 0.272 | 0.562 | 0.769 | 0.786 | 0.418 | 0.308 |
| HARA | 1.12 | 1.23 | 1.11 | 0.725 | 0.54 | 0.223 | 0.234 | 0.216 | 0.255 | 0.171 | 0.372 | 0.257 | 0.198 | 0.24 | 0.17 | 0.983 | 0.762 | 0.374 | 0.272 | 0.258 |
| HCC-15 | 1.17 | 1.1 | 0.976 | 0.663 | 0.615 | 0.858 | 0.687 | 0.667 | 0.369 | 0.275 | 0.806 | 0.685 | 0.631 | 0.369 | 0.338 | 1.05 | 0.969 | 0.755 | 0.537 | 0.445 |
| HCC-44 | 1.01 | 0.942 | 0.853 | 0.494 | 0.449 | 0.949 | 0.936 | 0.949 | 0.925 | 0.867 | 0.447 | 0.396 | 0.376 | 0.267 | 0.347 |  |  |  |  |  |
